The values that follow come from patent US20200339548A1, “PYRIMIDINE DERIVATIVES AND THEIR USE FOR THE TREATMENT OF CANCER” (Adorx Therapeutics Limited, priority 2017, published 2020).

In series [1] the test system is cancer. The note with it: monotherapy and in combination with atezolizumab, preliminary data, cited from earlier work.
Series [2] addresses T1, Adenosine A2b receptor (Homo sapiens, UniProt P29275).
T1 construct: expressed in transfected cells; host or cells: CHO cell membranes
T1 sequence (P29275 1-332): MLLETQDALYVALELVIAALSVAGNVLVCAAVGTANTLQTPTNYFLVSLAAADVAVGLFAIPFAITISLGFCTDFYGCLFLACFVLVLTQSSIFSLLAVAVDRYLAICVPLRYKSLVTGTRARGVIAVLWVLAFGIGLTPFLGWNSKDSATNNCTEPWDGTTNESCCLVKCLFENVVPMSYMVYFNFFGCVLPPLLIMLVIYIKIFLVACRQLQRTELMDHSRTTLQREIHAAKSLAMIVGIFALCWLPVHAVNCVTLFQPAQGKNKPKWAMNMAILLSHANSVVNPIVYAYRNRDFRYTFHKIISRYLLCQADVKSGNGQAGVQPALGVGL
As to the kind of experiment: Adenosine receptor TR-FRET binding assay, A2b. The note with it: Table 9, further testing; displacement of 30 nM CA200645, CHO cell membranes. Summed up: (§1)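 Competition TR-FRET binding in CHO cell membranes expressing terbium-labelled human receptors, displacing fluorescent XAC (CA200645; 30 nM for A2b, 100 nM for A1, A2a, A3); 2 h at room temperature with saponin buffer, 1% DMSO. 665/620 nm ratio; non-specific with 10 μM XAC; Ki by Cheng–Prusoff from IC50.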

Series [3] concerns the target T2, Adenosine A2a receptor (Homo sapiens, UniProt P29274).
T2 construct: expressed in transfected cells; host or cells: CHO cell membranes
As to the kind of experiment: Adenosine receptor TR-FRET binding assay, A2a. To be noted: displacement of 100 nM CA200645, CHO cell membranes. Summed up: as §1
For orientation: Time-resolved FRET reads energy transfer from a long-lived donor to a nearby acceptor.

For series [4], the system named is Human Whole Blood. As to the kind of experiment: LPS stimulated TNF-alpha release NECA reversal assay. In kind it is cell-based. To be noted: 5 hours. How it is done:
Blood is drawn from healthy volunteers using sodium citrate (0.3% final concentration) or heparin (19.5 U/ml) as the anticoagulant. A 15 minute incubation may be given with adenosine deaminase (2 u/ml) prior to plating the blood into assay plates, as indicated. 20 μl diluted compound mix containing LPS, NECA and adenosine receptor antagonist diluted in RPMI medium is added to U-bottom cell culture plates. 180 μl anticoagulated blood is added. Assay plates are incubated for 5 hours at 37° C. in a humidified incubator. Plasma obtained by centrifugation at 2000 rpm/10 mins is tested for TNF alpha levels using the human TNF alpha Tissue Culture Kit (Meso Scale Discovery). For bar charts, data is expressed as raw counts from a Mesoscale Sector Imager 6000.

The target of series [5] is T3, Adenosine A3 receptor (Homo sapiens, UniProt P0DMS8).
T3 construct: expressed in transfected cells; host or cells: CHO cell membranes
T3 sequence (P0DMS8 1-318): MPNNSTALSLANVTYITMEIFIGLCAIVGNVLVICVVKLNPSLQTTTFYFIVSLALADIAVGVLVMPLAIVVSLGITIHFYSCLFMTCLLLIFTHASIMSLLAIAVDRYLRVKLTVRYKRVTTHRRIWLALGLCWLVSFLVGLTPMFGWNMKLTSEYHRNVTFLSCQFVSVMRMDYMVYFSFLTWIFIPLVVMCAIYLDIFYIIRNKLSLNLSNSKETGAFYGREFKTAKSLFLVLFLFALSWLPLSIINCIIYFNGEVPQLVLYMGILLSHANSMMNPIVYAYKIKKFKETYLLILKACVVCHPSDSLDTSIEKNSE
The series can be described thus: Adenosine receptor TR-FRET binding assay, A3. To be noted: Table 9, further testing; displacement of 100 nM CA200645, CHO cell membranes; read-out: A3 Ki. The essentials:
as §1

The test system of series [6] is Human PBMCs. The series can be described thus: CD3/CD28 stimulated IL-2 release NECA reversal assay. In kind it is cell-based. Here is the method: Blood is drawn from healthy volunteers using sodium citrate as the anticoagulant (0.3% final concentration). […] 50 μl diluted compound mix is added to the cells, to obtain final concentrations of 1 ug/ml CD28 antibody, 1 uM NECA and 0.003-10 μM adenosine receptor antagonist. Assay plates are incubated for 24 hours at 37° C. in a humidified incubator.

Series [7] deals with T4, Adenosine A1 receptor (Homo sapiens, UniProt P30542).
T4 construct: expressed in transfected cells; host or cells: CHO cell membranes
T4 sequence (P30542 1-326): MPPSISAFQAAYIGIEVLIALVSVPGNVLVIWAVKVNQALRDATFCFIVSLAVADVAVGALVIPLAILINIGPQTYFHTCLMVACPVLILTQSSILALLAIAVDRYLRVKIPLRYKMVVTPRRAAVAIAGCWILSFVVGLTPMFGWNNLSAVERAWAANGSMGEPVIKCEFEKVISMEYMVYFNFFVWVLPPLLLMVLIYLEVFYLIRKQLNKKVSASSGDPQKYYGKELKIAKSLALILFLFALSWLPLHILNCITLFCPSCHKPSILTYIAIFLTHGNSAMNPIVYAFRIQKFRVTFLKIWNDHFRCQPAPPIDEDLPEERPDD
As to the kind of experiment: Adenosine receptor TR-FRET binding assay, A1. To be noted: Table 9, further testing; displacement of 100 nM CA200645, CHO cell membranes. The essentials: as §1

The test system of series [8] is CD8+T Cells in Human Whole Blood. The series can be described thus: Measurement of pCREB in CD8+ T cells. The format is cell-based. To be noted: T-cell, 1 h; heparinised human whole blood, rolipram, 3 μM NECA, 60 min, FACS. How it is done:
Heparinised human whole blood was pre-incubated at 37° C. with serial dilutions of A2a antagonists for 20 min. and the phosphodiesterase inhibitor rolipram to amplify the pCREB response. The adenosine receptor agonist NECA is then added at a final concentration of 3 μM and following a 60 min incubation the blood is fixed and red blood cells lysed. White blood cells are isolated, permeabilized and stained with directly conjugated fluorescent antibodies to phospho-CREB (Alexa Fluor 488) and CD8 (Alexa Fluor 647) and the level of phospho-CREB in CD8+ T cells is measured by FACS using a BD Accuri C6 Flow Cytometer.

[9] abbreviates: Homo sapiens, PBMC, read-out: IL-2 release NECA reversal IC50 (nM), 1 uM NECA, 24 hours.

Read-outs that look alike come from different tables or passages of the source.

T2 sequence (P29274 whole entry): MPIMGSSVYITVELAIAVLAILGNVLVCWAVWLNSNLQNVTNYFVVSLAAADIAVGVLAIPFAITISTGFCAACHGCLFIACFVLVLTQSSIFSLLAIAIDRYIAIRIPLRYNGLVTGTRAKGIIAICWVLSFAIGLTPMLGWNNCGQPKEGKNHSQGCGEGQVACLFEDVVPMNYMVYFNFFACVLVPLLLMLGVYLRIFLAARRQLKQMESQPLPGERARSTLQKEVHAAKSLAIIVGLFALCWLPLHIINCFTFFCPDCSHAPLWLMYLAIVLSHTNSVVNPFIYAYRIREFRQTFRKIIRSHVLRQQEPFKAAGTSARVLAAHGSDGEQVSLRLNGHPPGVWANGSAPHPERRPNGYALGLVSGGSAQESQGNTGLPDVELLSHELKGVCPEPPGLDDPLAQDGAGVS

As for `Cc1ccc(-c2nc(N)nc3c2nnn3Cc2cccc(CO[C@H]3CCOC3)n2)o1` [CPI-444], in series [1] (early indications), the “CD8+T infiltration into tumour tissue” value is given as “enhancing CD8^+T infiltration into tumour tissue” and the tumour size result is given as “reducing tumour size”. For the same molecule, the tolerability entry in series [1] is given as “well tolerated”.

As for `Cc1cccnc1CNC(=O)c1cnc(-c2ccco2)nc1N` [Example 3, 4-Amino-2-(2-furyl)-N-[(3-methyl-2-pyridyl)methyl]pyrimidine-5-carboxamide], the Ki (as a rule, the equilibrium dissociation constant of an inhibitor or competing ligand from its target) in series [2] was 440 nM; in series [3] (Table 8, Cheng and Prusoff), 1.7 nM; in series [3] (Table 9, further testing) it was 3.3 nM; in series [5] it was 908 nM; in series [7], 1720 nM. Further, the IC50 (as a rule, the point on the concentration scale where inhibition reaches its midpoint) is 2290 nM in series [4]; 77 nM in series [6] (read-out: IL-2 release NECA reversal IC50, 1 uM NECA, 24 hours); 1210 nM in series [8].

As for `CC(C)n1ncnc1CNC(=O)c1cnc(-c2cccc(F)c2)nc1N` [Example 10.15, 4-Amino-2-(3-fluorophenyl)-N-[(2-isopropyl-1,2,4-triazol-3-yl)methyl]pyrimidine-5-carboxamide], the Ki in series [2] was found to be 1280 nM; in series [3] (Table 8, Cheng and Prusoff), 34 nM; in series [3] (Table 9, further testing), 34 nM; in series [5], 2510 nM; in series [7], 90 nM. For the same molecule, the IC50 in series [6] (setting [9]) was determined as 1290 nM.

For the molecule `Cc1cccnc1CNC(=O)c1cnc(-c2cccc(C#N)c2)nc1N` [Example 12, 4-Amino-2-(3-cyanophenyl)-N-[(3-methyl-2-pyridyl)methyl]pyrimidine-5-carboxamide], the inhibition constant (Ki) in series [2] was found to be 1560 nM; in series [3] (Table 8, Cheng and Prusoff), 27 nM; in series [3] (Table 9, further testing), 27 nM; in series [5], 1030 nM; in series [7], 17 nM. Besides, in series [6] (setting [9]), the concentration for half-maximal inhibition (IC50) is 1200 nM.

Regarding `Cc1cccnc1CNC(=O)c1nnc(-c2cccc(C#N)c2)nc1N` [Example 17, 5-Amino-3-(3-cyanophenyl)-N-[(3-methyl-2-pyridyl)methyl]-1,2,4-triazine-6-carboxamide], the Ki in series [2] worked out at 405 nM; in series [3] (Table 8, Cheng and Prusoff), 3.8 nM; in series [3] (Table 9, further testing) it was 2.4 nM; in series [5], 442 nM; in series [7], 767 nM. Further, the IC50 in series [6] (setting [9]) was determined as 309 nM.

On to `COc1nc(-c2ccco2)nc(N)c1C(=O)NCc1ncccc1C` [Example 18, 4-Amino-2-(2-furyl)-6-methoxy-N-[(3-methyl-2-pyridyl)methyl]pyrimidine-5-carboxamide], for which the Ki in series [2] was determined as 231 nM; in series [3] (Table 8, Cheng and Prusoff), 1.1 nM; in series [3] (Table 9, further testing), 0.64 nM; in series [5], 201 nM; in series [7], 202 nM. Besides, the IC50 in series [6] (setting [9]) is 37 nM.

For the molecule `COc1nc(-c2ccco2)nc(N)c1C(=O)NCc1ncccc1C(F)(F)F` [Example 18.1, 4-Amino-2-(2-furyl)-6-methoxy-N-[[3-(trifluoromethyl)-2-pyridyl]methyl]pyrimidine-5-carboxamide], the inhibitory constant (Ki) was determined as 495 nM in series [2]; 0.23 nM in series [3] (Table 9, further testing); 149 nM in series [5]; 176 nM in series [7]. The IC50 in series [6] (setting [9]) is 28 nM.

`COc1nc(-c2ccco2)nc(N)c1C(=O)NCc1c(Cl)cccc1Cl` [Example 18.3, 4-Amino-N-[(2,6-dichlorophenyl)methyl]-2-(2-furyl)-6-methoxy-pyrimidine-5-carboxamide]: the Ki in series [2] worked out at 5.4 nM; in series [3] (Table 9, further testing), 0.078 nM; in series [5], 194 nM; in series [7], 18 nM. Besides, the half-maximal inhibitory concentration (IC50) in series [4] came to 476 nM; in series [6] (setting [9]), 5 nM; in series [8], 17 nM.

For `Cc1cccnc1CNC(=O)c1c(N)nc(-c2ccco2)nc1OCCF` [Example 20.7, 4-Amino-6-(2-fluoroethoxy)-2-(2-furyl)-N-[(3-methyl-2-pyridyl)methyl]pyrimidine-5-carboxamide], the Ki in series [2] was found to be 29 nM; in series [3] (Table 9, further testing) it was 0.11 nM; in series [5] it was 15 nM; in series [7], 6.6 nM. Also, the IC50 in series [6] (setting [9]) came out at 14 nM.

As to `Cc1cccnc1CNC(=O)c1c(N)nc(-c2ccco2)nc1OCC(C)(C)C` [Example 20.10, 4-Amino-6-(2,2-dimethylpropoxy)-2-(2-furyl)-N-[(3-methyl-2-pyridyl)methyl]pyrimidine-5-carboxamide], the Ki in series [2] turned out to be 1220 nM; in series [3] (Table 9, further testing), 1.8 nM; in series [5], 11 nM; in series [7], 4.9 nM. The IC50 in series [6] (setting [9]) amounted to 62 nM.

In the case of `Cc1cccnc1CNC(=O)c1c(N)nc(-c2ccco2)nc1OC[C@H](C)O` [Example 20.11, 4-Amino-2-(2-furyl)-6-[(2S)-2-hydroxypropoxy]-N-[(3-methyl-2-pyridyl)methyl]pyrimidine-5-carboxamide], the Ki was 80 nM in series [2]; 0.11 nM in series [3] (Table 9, further testing); 11 nM in series [5]; 1.7 nM in series [7]. The IC50 stood at 221 nM in series [4], 9 nM in series [6] (setting [9]) and 42 nM in series [8].

As for `Cc1cccnc1CNC(=O)c1c(N)nc(-c2ccco2)nc1OC[C@@H](C)O` [Example 20.13, 4-Amino-2-(2-furyl)-6-[(2R)-2-hydroxypropoxy]-N-[(3-methyl-2-pyridyl)methyl]pyrimidine-5-carboxamide], the Ki was 611 nM in series [2]; 0.099 nM in series [3] (Table 9, further testing); 14 nM in series [5]; 9 nM in series [7]. For the same molecule, the IC50 in series [6] (setting [9]) was 19 nM.

Consider `CC(O)CCNC(=O)c1c(N)nc(-c2cccc(C#N)c2)nc1OCCF` (centres unmarked) [Example 24.6, 4-Amino-2-(3-cyanophenyl)-6-(2-fluoroethoxy)-N-(3-hydroxybutyl)pyrimidine-5-carboxamide], for which the Ki amounted to 1070 nM in series [2]; 7 nM in series [3] (Table 9, further testing); 2220 nM in series [5]; 629 nM in series [7]. Moreover, in series [6] (setting [9]), the IC50 amounted to 207 nM.

Consider `Cc1cccnc1CNC(=O)c1c(N)nc(-c2ncco2)nc1OCCF` [Example 25, 4-Amino-6-(2-fluoroethoxy)-N-[(3-methyl-2-pyridyl)methyl]-2-oxazol-2-yl-pyrimidine-5-carboxamide], for which the Ki in series [2] worked out at 77 nM; in series [3] (Table 9, further testing), 1.3 nM; in series [5] it was 62 nM; in series [7], 260 nM. The IC50 in series [6] (setting [9]) stood at 11 nM; in series [8], 106 nM.
